Where two headings read alike, the source gives them in different places.
How the values were obtained:
DMS53 SCLC cell line = test: SN-38 in vitro growth and viability assay; type: cell-based
NCI-H1048 SCLC cell line [1] = test: Cell growth inhibition kinetics, IncuCyte ZOOM System; type: cell-based; details: NCI-H1048, time-course of 88 hours
DMS114 SCLC cell line = test system: DMS114 SCLC cell line
Method: (§1) Irinotecan liposome injection was administered intravenously to mice bearing xenograft tumors. At 24 hours post administration, mice were sacrificed and tumors were harvested. Irinotecan and SN-38 in tumors were measured by high performance liquid chromatography (HPLC). Data were normalized to injected dose per tumor weight. […] Cell growth inhibition kinetics of SN-38 in the cell lines was determined using IncuCyte® ZOOM System.

NCI-H1048 SCLC cell line [2] = test system: NCI-H1048 SCLC cell line
Method: as §1

DMS-114 SCLC cell line = test: Cell growth inhibition kinetics, IncuCyte ZOOM System; type: cell-based; details: DMS-114, time-course of 88 hours
SW1271 SCLC cell line = test: SN-38 in vitro growth and viability assay; type: cell-based
NCI-H1048 xenograft [3] = test: Second line SCLC model: NCI-H1048 after carboplatin plus etoposide; type: in vivo; details: weekly: nal-IRI 16 mg/kg IV; irinotecan 33 mg/kg IV; topotecan 1.66 mg/kg/wk IP days 1 and 2
Method: As described below, mice bearing NCI-H1048 SCLC tumors were treated with a carboplatin plus etoposide, a first line regimen in SCLC. Once the tumors escaped growth control by carboplatin plus etoposide, mice were randomized to either continue treatment with carboplatin plus etoposide or switch to second line treatment with either irinotecan liposome injection, non-liposomal irinotecan or topotecan.
NOD/SCID mice with NCIH1048 SCLC xenograft tumors were treated weekly with the combination of 30 mg/kg carboplatin plus 25 mg/kg etoposide. […] . […] . […] . FIG. 21B is a survival graph for mice on each of the treatments.

NCI-H1048 xenograft [4] = test: NCI-H1048 SCLC xenograft, treatment naive; details: for anti-tumor activity / response (in words): NCI-H1048, irinotecan 33 mg/kg IV, weekly
[5] = test system: small cell lung cancer (SCLC); details: second line SCLC, cited from earlier work; for overall survival: certain regimens; for grade 3 or greater diarrhea / grade 3 or greater neutropenia rates / overall response rates / overall survival (OS) / progression free survival (PFS): topotecan 1.5 mg/m^2 days 1-5 every 3 weeks, non-liposomal irinotecan 300 mg/m^2 every 3 weeks
DMS-53 xenograft = test: DMS-53 SCLC xenograft; details: nal-IRI 16 mg/kg IV, topotecan 0.83 mg/kg/wk days 1-2, weekly
DMS-114 xenograft [6] = test: DMS-114 SCLC xenograft, NOD/SCID mice
DMS-114 xenograft [7] = test: DMS-114 xenograft, topotecan-treated tumors; details: nal-IRI 16 mg/kg; irinotecan 33 mg/kg
[8] = nal-IRI 16 mg/kg IV, topotecan 0.83 mg/kg/wk days 1-2 IP

CCc1c2c(nc3ccc(O)cc13)-c1cc3c(c(=O)n1C2)COC(=O)[C@]3(O)CC [SN-38]
decrease in cell viability (DMS53 SCLC cell line): > 90%
concentration with cell killing after prolonged incubation times (NCI-H1048 SCLC cell line [1]): ≥ 10 nM
concentration with effective cell growth inhibition (NCI-H1048 SCLC cell line [1]): 1 to 10 nM
decrease in cell viability (DMS114 SCLC cell line): > 90%
decrease in cell viability (NCI-H1048 SCLC cell line [2]): > 90%
concentration with cell killing after prolonged incubation times (DMS-114 SCLC cell line): ≥ 10 nM
concentration with effective cell growth inhibition (DMS-114 SCLC cell line): 1 to 10 nM
decrease in cell viability (SW1271 SCLC cell line): > 90%

CC[C@@]1(O)C(=O)OCc2c1cc1n(c2=O)Cc2cc3c(CN(C)C)c(O)ccc3nc2-1 [topotecan]
anti-tumor activity in carboplatin plus etoposide-treated SCLC tumors (in words) (NCI-H1048 xenograft [3]): seems to be active after 1-2 cycles but progress quickly after 3rd dose
mice with complete tumor regressions after 4 cycles of treatment (NCI-H1048 xenograft [4]; Example 11, nal-IRI 16 mg/kg salt q1w, topotecan 0.83 mg/kg/week Day 1-2): 0 out of 7
mice with complete regressions of their tumors (NCI-H1048 xenograft [4]; Example 15, n=10, nal-IRI 16 mg/kg IV, topotecan 0.83 mg/kg/wk days 1-2 IP): 0 out of 10
anti-tumor activity / response (in words) (NCI-H1048 xenograft [4]; [8]): limited tumor growth control
overall survival ([5]; all patients): 7.8 months
overall survival ([5]; refractory patients): 5.7 months
overall survival ([5]; sensitive patients): 9.9 months
grade 3 or greater diarrhea [5]: less than 5%
grade 3 or greater neutropenia rates [5]: 28-88%
overall response rates [5]: 7-24%
overall survival (OS) [5]: 5.0-8.9 months
progression free survival (PFS) [5]: 3.1-3.7 months
anti-tumor activity / response (in words) (DMS-53 xenograft): limited tumor growth control
anti-tumor activity of bolus (day 1) compared to fractionated (days 1 & 2) dosing (DMS-114 xenograft [6]; same dose intensity, FIG. 15 (DMS-114, NCI-H1048)): less anti-tumor activity

CCc1c2c(nc3ccc(OC(=O)N4CCC(N5CCCCC5)CC4)cc13)-c1cc3c(c(=O)n1C2)COC(=O)[C@]3(O)CC [non-liposomal irinotecan, (S)-4,11-diethyl-3,4,12,14-tetrahydro-4-hydroxy-3,14-dioxo1H-pyrano[3′,4′:6,7]-indolizino[1,2-b]quinolin-9-yl-[1,4′bipiperidine]-1′-carboxylate]
anti-tumor activity in carboplatin plus etoposide-treated SCLC tumors (in words) (NCI-H1048 xenograft [3]): active but after 3rd cycle some tumors are trending regrowth
anti-tumor activity / response (in words) (NCI-H1048 xenograft [4]; [8]): progress after initially responding to treatment
grade 3 or greater diarrhea [5]: 0-13%
grade 3 or greater neutropenia rates [5]: 21-23%
overall response rates [5]: 0-33%
overall survival (OS) [5]: 4.6-6.9 months
progression free survival (PFS) [5]: 1.7-2.8 months
anti-tumor activity / response (in words) (DMS-114 xenograft [6]; DMS-114, nal-IRI 16 mg/kg IV, irinotecan 33 mg/kg IV, topotecan 0.83 mg/kg/wk days 1-2 IP, weekly): became less responsive after 2-3 cycles
responsiveness of topotecan-treated DMS114 tumors (DMS-114 xenograft [7]): not
